The source of these data is patent publication US12319710B2, “Catecholamine prodrugs for use in the treatment of Parkinson's diseases” (H. Lundbeck A/S, priority 2019, dated 2025).

“Also recorded” adds a separate entry of the source.

The nature of data set [1]: Conversion of compounds in human plasma. The data set is classed as in vitro ADME. Conditions: for Observed metabolite, incubation in human plasma: 1 μM test compound, 37° C., 0-6 hours, nd: not detected. Here is the method:
Frozen human plasma was thawed and then centrifuged at 3200×g for 5 minutes to remove debris. The pH value of the supernatant was then measured and adjusted to 7.4±0.1 by adding 1% phosphoric acid or 1 N sodium hydroxide. 2 μL of dosing solution (50 μM for test compounds and 100 μM for positive control (propantheline bromide)) was mixed with 98 μL of blank plasma to achieve 1 μM test compound and 2 μM positive control of final concentration. The mixture was incubated, and samples were withdrawn from the incubations at the pre-determined time points of 0, 0.5, 1, 2, 4 and 6 hours (in duplicate) at 37° C. in water bath. At each corresponding time point 10 μL inhibitor and 20 μL ascorbic acid and 2 μL formic acid (20%) are added, and then added 400 μL of “stop solution” (200 ng/mL tolbutamide plus 200 ng/mL labetalol in 50% ACN/MeOH) to precipitate protein. The substance was mixed thoroughly and thereafter centrifugated at 4,000 rpm for 20 minutes. Then an aliquot of supernatant (50 μL) was transferred from each well to a sample plate and mixed with 100 μL ultrapure water. The plate was shaked at 800 rpm for about 10 minutes before submitting to LC-MS/MS analysis.
(§1) Instrumentation Used for Analysis of Plasma and Hepatocyte Incubation Samples
(§2) Mass spectrometer (LC-MS/MS) Shimadzu LC 20-AD Shimadzu UHPLC API 4000. Analytical column ACQUITY UPLC® BEH Phenyl 1.7 μm 2.1×50 mm. Mobile phase A: 0.1% Formic Acid in Water. Mobile phase B: 0.1% Formic Acid in Acetonitrile. […] Flow rate 0.7 mL/min.

Data set [2] has as its target T1, human 5-HT2B receptor (Homo sapiens, UniProt P41595).
T1 construct: host or cells: CHO cells (membrane homogenates)
Put plainly: 5-HT2B radioligand binding assay ([125I](±)DOI, CHO cell membranes). Conditions: read-out: 5-HT2B % @ 10 μM (binding affinity, % inhibition of control specific binding). As to the method:
Evaluation of the affinity of compounds for the human 5-HT2B receptor was determined in a radioligand binding assay at Eurofins/Cerep (France). Membrane homogenates prepared from CHO cells expressing the human 5HT2B receptor were incubated for 60 minutes at room temperature with 0.2 nM [1251](±)DOI (1-(4-iodo-2, 5-dimethoxyphenyl)propan-2-amine) in the absence or presence of the test compound in a buffer containing 50 mM Tris-HCl (pH 7.4), 5 mM MgCl2, 10 μM pargyline and 0.1% ascorbic acid. Nonspecific binding is determined in the presence of 1 μM (±)DOI. Following incubation, the samples were filtered rapidly under vacuum through glass fiber filters (GF/B, Packard) presoaked with 0.3% polyethyleneimine (PEI) and rinsed several times with ice-cold 50 mM Tris-HCl using a 96-sample cell harvester (Unifilter, Packard). The filters were dried and counted for radioactivity in a scintillation counter (Topcount, Packard) using a scintillation cocktail (Microscint 0, Packard). The results are expressed as a percent inhibition of the control radioligand specific binding. The standard reference compound was (±)DOI, which was tested in each experiment at several concentrations to obtain a competition curve from which its IC50 is calculated.

A short description of data set [3]: PK experiments in rats: plasma compound (I) after oral dosing of prodrug. The format is in vivo, Wistar rats. The conditions noted are these: for Observed metabolite, in vivo PK study after oral dosing (rats): plasma. Here is the method:
Plasma was placed on water-ice following collection. Final storage at approximately −70° C.
Mobile phase B: Acetonitrile. […] Flow rate 0.5 mL/min.
The rats had unrestricted access to the diet.
Mobile phase B: Acetonitrile+0.2% formic acid. […] Flow rate 0.3 mL/min.
Dosing and blood sampling: Han Wistar rats were supplied by Envigo, UK. […] The rats received a standard laboratory diet Teklad 2014C. The rats had unrestricted access to the diet. […] Rats were given […] (Ic), 487 ag/kg compound (7), 487 ag/kg Compound (4), 674 ag/kg compound (9), 359 ag/kg A6 and 551 ag/kg A2.

In data set [4] the test system is human hepatocytes. Put plainly: Conversion of compounds in human hepatocytes. The conditions noted are these: 1 μM compound, 37° C.; nd: not detected. The data set is classed as in vitro ADME. As to the method: Incubations were conducted in 96-well plates at 1 μM compound concentration in duplicate. The hepatocyte cell concentration was 0.5×10^6 cells/mL used for final incubation at 37° C. in an incubator of 5% CO2 95% relative humidity. The medium control samples were included at 0 and 60 minutes in the absence of cells. The total organic concentration was 1% (DMSO 0.1%) in the final incubation. The controls, (7-ethoxycoumarin and 7-hydroxycoumarin) was incubated parallel at […]. 2 μL of dosing solution (50 μM for test compounds and 100 μM for positive control) was mixed with 98 μL of 100 mM PBS to achieve 1 μM test compound and 2 μM positive control of final concentration. The mixture was incubated, and samples were withdrawn from the incubations at pre-determined time points of 0, 0.5, 1, 2, 4 and 6 hour (in duplicate) at 37° C. in water bath. To each sample, 10 μL inhibitor and 20 μL ascorbic acid and 2 μL formic acid (20%) were added followed by 400 μL of stop solution (200 ng/mL tolbutamide plus 200 ng/mL labetalol in 50% ACN/MeOH). The substance was mixed thoroughly and thereafter centrifuged at 4,000 rpm for 20 minutes. An aliquot of supernatant (50 μL) from each well were transferred to a sample plate and mixed with 100 μL ultrapure water. The plate was shaked at 800 rpm for about 10 minutes before submitting to LC-MS/MS analysis.
as §1, §2

T1 sequence (P41595 whole entry): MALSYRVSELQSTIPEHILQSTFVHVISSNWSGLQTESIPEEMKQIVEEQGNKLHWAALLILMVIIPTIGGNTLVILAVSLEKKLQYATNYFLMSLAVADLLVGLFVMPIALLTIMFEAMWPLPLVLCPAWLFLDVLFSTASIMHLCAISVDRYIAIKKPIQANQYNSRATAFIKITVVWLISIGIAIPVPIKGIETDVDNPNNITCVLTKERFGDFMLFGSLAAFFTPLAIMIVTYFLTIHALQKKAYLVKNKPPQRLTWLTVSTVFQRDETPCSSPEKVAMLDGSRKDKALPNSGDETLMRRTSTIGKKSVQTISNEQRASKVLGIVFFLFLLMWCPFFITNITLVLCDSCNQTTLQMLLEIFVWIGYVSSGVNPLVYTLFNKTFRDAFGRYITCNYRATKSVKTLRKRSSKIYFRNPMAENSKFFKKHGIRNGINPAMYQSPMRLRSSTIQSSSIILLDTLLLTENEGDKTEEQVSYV

On to `CCCN1CCC[C@@H]2Cc3c(ccc(O)c3O)C[C@H]21` [(I), (4aR,10aR)-1-Propyl-1,2,3,4,4a,5,10,10a-octahydro-benzo[g]quinoline-6,7-diol, reference compound], for which the “half-life in the plasma assay” value in data set [1] (human plasma incubation) is “short half-life”.

As for `CCCN1CCC[C@@H]2Cc3c(ccc(OC(=O)C(C)(C)C)c3OC(=O)C(C)(C)C)C[C@H]21` [(Ic), reference compound], the inhibition at 10 µM in data set [2] is -5%. In addition, the “plasma concentrations of compound (I) after oral dosing (in words)” value in data set [3] (Wistar rats, oral) was “extremely low”.

As to `CCCN1CCC[C@@H]2Cc3c(ccc(O)c3O[C@@H]3O[C@H](COC(C)=O)[C@@H](OC(C)=O)[C@H](OC(C)=O)[C@H]3OC(C)=O)C[C@H]21` [Compound (2), (2R,3R,4S,5R,6S)-2-(acetoxymethyl)-6-(((4aR,10aR)-7-hydroxy-1-propyl-1,2,3,4,4a,5,10,10a-octahydrobenzo[g]quinolin-6-yl)oxy)tetrahydro-2H-pyran-3,4,5-triyl triacetate], the inhibition at 10 µM in data set [2] was -6%. Moreover, the results for the “Observed metabolite, incubation in human plasma” value in data set [1] and in data set [1] (listed as compound (2)) were “Glucuronide” and “glucuronide derivative”, respectively.

For the compound `CCCN1CCC[C@@H]2Cc3c(ccc(OC(C)=O)c3O[C@@H]3O[C@H](COC(C)=O)[C@@H](OC(C)=O)[C@H](OC(C)=O)[C@H]3OC(C)=O)C[C@H]21` [Compound (3), (2S,3R,4S,5R,6R)-2-(((4aR,10aR)-7-acetoxy-1-propyl-1,2,3,4,4a,5,10,10a-octahydrobenzo[g]quinolin-6-yl)oxy)-6-(acetoxymethyl)tetrahydro-2H-pyran-3,4,5-triyl triacetate], in data set [4], the “Observed metabolite, incubation in human hepatocytes” value is “Compound (4)”. In data set [2], the inhibition at 10 µM turned out to be 18%.

For `CCCN1CCC[C@@H]2Cc3c(ccc(O)c3O[C@@H]3O[C@H](CO)[C@@H](O)[C@H](O)[C@H]3O)C[C@H]21` [Compound (4), (2S,3R,4S,5S,6R)-2-(((4aR,10aR)-7-hydroxy-1-propyl-1,2,3,4,4a,5,10,10a-octahydrobenzo[g]quinolin-6-yl)oxy)-6-(hydroxymethyl)tetrahydro-2H-pyran-3,4,5-triol], the “Observed metabolite, incubation in human hepatocytes” value in data set [4] is given as “Compound (I)”. Also, the inhibition at 10 µM in data set [2] was found to be 0%. The “Observed metabolite, in vivo PK study after oral dosing (rats)” value (from here on “Observed metabolite, in vivo PK study”) is listed as “Compound (I)” in data set [3] and “showed conversion in vivo” in data set [3] (listed as compound (4)).

With `CCCN1CCC[C@@H]2Cc3c(ccc(O[C@@H]4O[C@H](COC(C)=O)[C@@H](OC(C)=O)[C@H](OC(C)=O)[C@H]4OC(C)=O)c3O)C[C@H]21` [Compound (5), (2R,3R,4S,5R,6S)-2-(acetoxymethyl)-6-(((4aR,10aR)-6-hydroxy-1-propyl-1,2,3,4,4a,5,10,10a-octahydrobenzo[g]quinolin-7-yl)oxy)tetrahydro-2H-pyran-3,4,5-triyl triacetate], the “Observed metabolite, incubation in human hepatocytes” value in data set [4] was “Compound (7)”. In addition, the inhibition at 10 µM in data set [2] worked out at 9%. The “Observed metabolite, incubation in human plasma” value in data set [1] is on record as “Compound (7)”.

Consider `CCCN1CCC[C@@H]2Cc3c(ccc(O[C@@H]4O[C@H](COC(C)=O)[C@@H](OC(C)=O)[C@H](OC(C)=O)[C@H]4OC(C)=O)c3OC(C)=O)C[C@H]21` [Compound (6), (2S,3R,4S,5R,6R)-2-(((4aR,10aR)-6-acetoxy-1-propyl-1,2,3,4,4a,5,10,10a-octahydrobenzo[g]quinolin-7-yl)oxy)-6-(acetoxymethyl)tetrahydro-2H-pyran-3,4,5-triyl triacetate], for which, in data set [4], the “Observed metabolite, incubation in human hepatocytes” value was “Compound (7); also recorded: Compound (5)”. In data set [2], the inhibition at 10 µM is -5%. For the same compound, in data set [1], the “Observed metabolite, incubation in human plasma” value is “Compound (7); also recorded: Compound (5)”.

As for `CCCN1CCC[C@@H]2Cc3c(ccc(O[C@@H]4O[C@H](CO)[C@@H](O)[C@H](O)[C@H]4O)c3O)C[C@H]21` [Compound (7), (2S,3R,4S,5S,6R)-2-(((4aR,10aR)-6-hydroxy-1-propyl-1,2,3,4,4a,5,10,10a-octahydrobenzo[g]quinolin-7-yl)oxy)-6-(hydroxymethyl)tetrahydro-2H-pyran-3,4,5-triol], the inhibition at 10 µM in data set [2] came out at 7%.

As to `CCCN1CCC[C@@H]2Cc3c(ccc(O[C@@H]4O[C@H](COC(C)=O)[C@@H](OC(C)=O)[C@H](OC(C)=O)[C@H]4OC(C)=O)c3O[C@@H]3O[C@H](COC(C)=O)[C@@H](OC(C)=O)[C@H](OC(C)=O)[C@H]3OC(C)=O)C[C@H]21` [Compound (8), [(2R,3R,4S,5R,6S)-6-[[(4aR,10aR)-1-propyl-6-[(2S,3R,4S,5R,6R)-3,4,5-triacetoxy-6-(acetoxymethyl)tetrahydropyran-2-yl]oxy-3,4,4a,5,10,10a-hexahydro-2H-benzo[g]quinolin-7-yl]oxy]-3,4,5-triacetoxy-tetrahydropyran-2-yl]methyl acetate], the inhibition at 10 µM in data set [2] was -12%.

As to `CCCN1CCC[C@@H]2Cc3c(ccc(O[C@@H]4O[C@H](CO)[C@@H](O)[C@H](O)[C@H]4O)c3O[C@@H]3O[C@H](CO)[C@@H](O)[C@H](O)[C@H]3O)C[C@H]21` [Compound (9), (2R,2′R,3S,3′S,4S,4′S,5R,5′R,6S,6′S)-6,6′-(((4aR,10aR)-1-propyl-1,2,3,4,4a,5,10,10a-octahydrobenzo[g]quinoline-6,7-diyl)bis(oxy))bis(2-(hydroxymethyl)tetrahydro-2H-pyran-3,4,5-triol)], the “Observed metabolite, incubation in human hepatocytes” value in data set [4] is given as “Compound (4); also recorded: Compound (7)”. For the same compound, the inhibition at 10 µM in data set [2] was -5%. In addition, the “Observed metabolite, incubation in human plasma” value in data set [1] was “Compound (7)”. In addition, the “Observed metabolite, in vivo PK study” value in data set [3] is “Compound (I)”.

Take `CCCN1CCC[C@@H]2Cc3c(ccc(OCc4ccccc4)c3O)C[C@H]21` [Compound A2, (4aR,10aR)-7-(benzyloxy)-1-propyl-1,2,3,4,4a,5,10,10a-octahydrobenzo[g]quinolin-6-ol]: in data set [4], the “Observed metabolite, incubation in human hepatocytes” value was “Compound (I)”. Further, the inhibition at 10 µM in data set [2] was found to be 30%. In addition, the “Observed metabolite, incubation in human plasma” value in data set [1] was “Compound (I)”. Besides, in data set [3], the “Observed metabolite, in vivo PK study” value was “Compound (I)”.

In the case of `CCCN1CCC[C@@H]2Cc3c(ccc(OC)c3O)C[C@H]21` [Compound A6, (4aR,10aR)-7-methoxy-1-propyl-1,2,3,4,4a,5,10,10a-octahydrobenzo[g]quinolin-6-ol], the “Observed metabolite, incubation in human hepatocytes” value in data set [4] is on record as “Compound (I)”. For the same compound, the inhibition at 10 µM in data set [2] was 24%. Besides, the “Observed metabolite, in vivo PK study” value in data set [3] is on record as “Compound (I)”.
